Laboratory results from patent US12115218B2 (priority 2018, dated 2024).
Where a name gives a salt, the structure may show the parent alone.

Test system: Inactivated porcine circovirus type 2 vaccine (SH strain) antigen
Set-up: species or system mice
Conditions: mouse, in vivo

| Compound | Antibody titers in mice |
| --- | --- |
| c1ccc([C@H]2CN3CCSC3=N2)cc1 [levamisole aqueous solution, levamisole hydrochloride] | no adjuvant synergistic effect was produced |
| polyinosinic acid-polycytidylic acid | no adjuvant synergistic effect was produced |
